Assay results as given in patent US20060270705A1, “Method for inhibiting lipid absorption and lipid absorption inhibitor” (Japan Tobacco Inc., priority 2005, published 2006).

Key:
[1] = test system: lipid absorption in the small intestine; assay: Inhibitory effect on lipid absorption in the small intestine: plasma triglyceride after oral olive oil loading in hamsters; assay type: in vivo, normal syrian hamsters; settings: control group = 100%; for TG Concentration (%): Test 1, olive oil 2 mL/kg 30 min later, plasma 4 hours after olive oil, male 13-week old hamsters; for TG Concentration (4 hours) / TG Concentration (%) (8 hours): Test 2, 30 mg/kg oral, male 12-week old hamsters; for TG Concentration (4 hours): plasma 4 hours after oil loading; for TG Concentration (%) (8 hours): plasma 8 hours after oil loading
Procedure: Test of Inhibitory Effect on Lipid Absorption in the Small Intestine by Various CETP Inhibitors in Hamsters
(§1) Three kinds of CETP inhibitors (compound A: 40 mg/kg, compound B: 3 mg/kg, compound C: 3 mg/kg) suspended in 0.5% aqueous methylcellulose were orally administered to normal syrian hamsters (male, 13-week old). Only 0.5% aqueous methylcellulose was administered to the control group. After 30 minutes, olive oil at a dose of 2 mL/kg was orally loaded. Blood was collected from ophthalmic venous plexus 4 hours after the administration of olive oil, and plasma triglyceride (TG) concentration and CETP inhibitory activity were measured. Plasma triglyceride (TG) concentration was measured by enzymatic method. For CETP activity, the amount of [^3H]CE transferred from donor lipoprotein ([^3H]CE-HDL3) to acceptor lipoprotein (hamster apoB-containing lipoprotein) was used as index.
(§2) Using a test system similar to Test 1, the effects of compound B (30 mg/kg) and compound C (30 mg/kg) in normal syrian hamsters (male, 12-week old) were examined. Blood collection was carried out at 4 and 8 hours after oil loading, and plasma triglyceride (TG) concentration and CETP inhibitory activity were measured.

CETP = CETP activity in hamster plasma after oral dosing: [3H]CE transfer from donor [3H]CE-HDL3 to hamster apoB-containing lipoprotein; assay type: in vivo, normal syrian hamsters; settings: proportion relative to control group = 100%; for CETP Inhibitory Activity (%): Test 1, plasma 4 hours after olive oil; for CETP Inhibitory Activity (%) (8 hours): Test 2, 30 mg/kg oral, plasma 8 hours after oil loading
Procedure: Potassium bromide (KBr) was added to plasma (40 mL) of a healthy subject, adjusted to have a specific density d=1.125 g/mL, and subjected to fractional ultracentrifugation (288,000×g, 4° C., 18 to 20 hr), and a fraction showing a specific density of d>1.125 g/mL (HDL3 fraction) was harvested. The obtained fraction was dialyzed against PBS solution [10 mmol/L Na2HPO4; 10 mmol/L NaH2PO4; 0.15 mol/L NaCl; 1 mmol/L EDTA (pH 7.4)]. Then, tritium-labeled cholesterol (37 MBq) was dissolved in 95% ethanol, gradually added to the above-mentioned HDL3 fraction with stirring and incubated at 37° C. for 18 to 24 hr. [By this operation, tritium-labeled cholesterol was esterified by the action of lecithin cholesterol acyl transferase (LCAT) present on the HDL3 surface and taken up into HDL3 as tritium-labeled cholesteryl ester ([^3H]CE)]. After incubation, KBr was added, the specific density was adjusted to d=1.21 g/mL, and subjected to fractional ultracentrifugation (285,000×g, 4° C., 70 to 90 hr), and a fraction of specific density […] was harvested. The obtained fraction was dialyzed against the aforementioned PBS solution to give HDL3 incorporating [^3H]CE ([^3H]CE-HDL3, specific density: 1.125<d<1.21, specific activity: 22,000-33,000 dpm/μL) as a donor lipoprotein.
as §1, §2

[2] = 3 mg/kg oral in 0.5% methylcellulose

SMILES	TG Concentration (%) ([1]; 40 mg/kg oral in 0.5% methylcellulose)	CETP Inhibitory Activity (%) (CETP; 40 mg/kg oral)	TG Concentration (%) [1, 2] [%]	TG Concentration (4 hours) [1] [%]	TG Concentration (%) (8 hours) [1]	CETP Inhibitory Activity (%) (CETP; 3 mg/kg oral)	CETP Inhibitory Activity (%) (8 hours) (CETP)
CCC(CC)CC1(C(=O)Nc2ccccc2SC(=O)C(C)C)CCCCC1 [Compound A, S-{2-([[1-(2-ethylbutyl)cyclohexyl]carbonyl]amino)phenyl}2-methylpropanethioate]	87	83	–	–	–	–	–
CCN(C[C@H]1CC[C@H](CC(=O)O)CC1)c1cc(C)c(C(F)(F)F)cc1CN(Cc1cc(C(F)(F)F)cc(C(F)(F)F)c1)c1nnn(C)n1.CS(=O)(=O)O [Compound B, trans-(4-{[N-(2-{[N′-[3,5-bis(trifluoromethyl)benzyl]-N′-(2-methyl-2H-tetrazol-5-yl)amino]methyl}-5-methyl-4-trifluoromethylphenyl)-N-ethylamino]methyl}cyclohexyl)acetic acid methanesulfonate]	–	–	69	66	56	29	29
CCOC(=O)N1c2ccc(C(F)(F)F)cc2[C@@H](N(Cc2cc(C(F)(F)F)cc(C(F)(F)F)c2)C(=O)OC)C[C@H]1CC [Compound C]	–	–	69	85	71	20	37
